Experimental data reported in patent US20250360164A1, “METHOD FOR REDUCING THE INCIDENCE OF PECTORAL MYOPATHY IN POULTRY FEED” (CAN TECHNOLOGIES, INC., priority 2017, published 2025).

How the values were obtained:
wooden breast = details: previous state-of-the-art, poster 450 P, 2015; cited from earlier work
[1] = nitrate dosage up to at least 400 mg/kg body weight, starter and grower phases
Experimental: The amount of one or more nitrates, one or more nitrites, or a mixture thereof fed to the poultry in the feed compositions and/or methods described herein can also be expressed in mg of nitrates and/or nitrites per kg body weight of the poultry. In some embodiments, the nitrate/nitrite amount in the feed composition is less than 500 mg/kg, less than 450 mg/kg, less than 400 mg/kg, or less than 300 mg/kg. In some embodiments, the nitrate/nitrate amount in the feed composition is in the range of 10 to 500 mg/kg, 10 to 400 mg/kg; 10 to 300 mg/kg; 25 to 400 mg/kg; 25 to 200 mg/kg; 50 to 400 mg/kg; 50 to 150 mg/kg; or 100 to 400 mg/kg.

SMILES | reduction of wooden breast (wooden breast) | effect on growth [1] | nitrate poisoning [1]
N=C(N)NCCC[C@H](N)C(=O)O [arginine] | inefficient in providing effective reduction | – | –
O=[N+]([O-])[O-].O=[N+]([O-])[O-].[Ca+2] [calcium nitrate] | – | does not negatively affect growth | does not cause nitrate poisoning
